pIC50: −log10 of the molar value.
What was measured:
PRMT5/MEP50 complex = PRMT5/MEP50 complex (Homo sapiens, UniProt O14744); assay: Inhibition of recombinant N-terminal FLAG-tagged human full-length PRMT5/full length human MEP50 extracted from baculovirus expression system using [3H]-SAM as substrate preincubated for 15 mins followed by substrate addition and measured after 60 mins by multimode plate reader analysis
Z-138 = assay: Antiproliferative activity against human Z138 cells measured after 7 days by CellTiter-Glo luminescence cell viability assay; type: functional, cell-based; details: Z-138, 168 h
[1] = Half-life in Sprague-Dawley rat at 10 mg/kg, po by LC-MS/MS analysis; type: ADME, organism-based; details: in vivo; for half-life: Sprague-Dawley
[2] = Tmax in Sprague-Dawley rat at 10 mg/kg, po by LC-MS/MS analysis; type: ADME, organism-based; details: in vivo
[3] = Cmax in Sprague-Dawley rat at 10 mg/kg, po by LC-MS/MS analysis; type: ADME, organism-based; details: in vivo
[4] = AUC (0 to t) in Sprague-Dawley rat at 10 mg/kg, po by LC-MS/MS analysis; type: ADME, organism-based; details: in vivo; for AUC(0-t): Sprague-Dawley
[5] = MRT (0 to t) in Sprague-Dawley rat at 10 mg/kg, po by LC-MS/MS analysis; type: ADME, organism-based; details: in vivo
[6] = Oral bioavailability in Sprague-Dawley rat at 10 mg/kg by LC-MS/MS analysis; type: ADME, organism-based; details: in vivo
[7] = Half-life in Sprague-Dawley rat at 2 mg/kg, iv by LC-MS/MS analysis; type: ADME, organism-based; details: in vivo
[8] = Cmax in Sprague-Dawley rat at 2 mg/kg, iv by LC-MS/MS analysis; type: ADME, organism-based; details: in vivo
[9] = AUC (0 to t) in Sprague-Dawley rat at 2 mg/kg, iv by LC-MS/MS analysis; type: ADME, organism-based; details: in vivo
[10] = MRT (0 to t) in Sprague-Dawley rat at 2 mg/kg, iv by LC-MS/MS analysis; type: ADME, organism-based; details: in vivo
[11] = Clearance in Sprague-Dawley rat at 2 mg/kg, iv by LC-MS/MS analysis; type: ADME, organism-based; details: in vivo
[12] = Volume of distribution in Sprague-Dawley rat at 2 mg/kg, iv by LC-MS/MS analysis; type: ADME, organism-based; details: in vivo
[13] = biological target: Voltage-gated inwardly rectifying potassium channel KCNH2 (Homo sapiens, UniProt Q12809); assay: Inhibition of human ERG; type: toxicity
[14] = biological target: Protein arginine N-methyltransferase 3 (Homo sapiens, UniProt O60678); assay: Inhibition of PRMT3 (unknown origin)
[15] = biological target: T1, Histone-arginine methyltransferase CARM1 (Homo sapiens, UniProt Q86X55); assay: Inhibition of PRMT4 (unknown origin)
T1 sequence (Q86X55 whole entry): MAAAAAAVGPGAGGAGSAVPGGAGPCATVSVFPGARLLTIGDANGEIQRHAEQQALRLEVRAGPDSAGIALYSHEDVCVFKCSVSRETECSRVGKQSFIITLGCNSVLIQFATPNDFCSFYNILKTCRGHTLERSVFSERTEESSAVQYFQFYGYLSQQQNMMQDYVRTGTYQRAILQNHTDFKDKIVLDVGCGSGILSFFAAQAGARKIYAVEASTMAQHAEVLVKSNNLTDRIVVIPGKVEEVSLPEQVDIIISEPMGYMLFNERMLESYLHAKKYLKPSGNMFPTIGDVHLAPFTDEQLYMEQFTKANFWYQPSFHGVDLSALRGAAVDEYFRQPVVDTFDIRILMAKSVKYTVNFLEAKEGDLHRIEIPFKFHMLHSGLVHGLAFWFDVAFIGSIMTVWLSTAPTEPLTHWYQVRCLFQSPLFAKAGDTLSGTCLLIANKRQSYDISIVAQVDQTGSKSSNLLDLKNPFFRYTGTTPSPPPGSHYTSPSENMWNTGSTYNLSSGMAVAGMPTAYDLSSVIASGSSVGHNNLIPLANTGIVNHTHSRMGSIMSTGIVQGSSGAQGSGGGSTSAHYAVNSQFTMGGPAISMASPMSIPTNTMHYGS

[16] = biological target: Protein arginine N-methyltransferase 6 (Homo sapiens, UniProt Q96LA8); assay: Inhibition of PRMT6 (unknown origin)
[17] = biological target: T2, Protein arginine N-methyltransferase 7 (Homo sapiens, UniProt Q9NVM4); assay: Inhibition of PRMT7 (unknown origin)
T2 sequence (Q9NVM4 whole entry): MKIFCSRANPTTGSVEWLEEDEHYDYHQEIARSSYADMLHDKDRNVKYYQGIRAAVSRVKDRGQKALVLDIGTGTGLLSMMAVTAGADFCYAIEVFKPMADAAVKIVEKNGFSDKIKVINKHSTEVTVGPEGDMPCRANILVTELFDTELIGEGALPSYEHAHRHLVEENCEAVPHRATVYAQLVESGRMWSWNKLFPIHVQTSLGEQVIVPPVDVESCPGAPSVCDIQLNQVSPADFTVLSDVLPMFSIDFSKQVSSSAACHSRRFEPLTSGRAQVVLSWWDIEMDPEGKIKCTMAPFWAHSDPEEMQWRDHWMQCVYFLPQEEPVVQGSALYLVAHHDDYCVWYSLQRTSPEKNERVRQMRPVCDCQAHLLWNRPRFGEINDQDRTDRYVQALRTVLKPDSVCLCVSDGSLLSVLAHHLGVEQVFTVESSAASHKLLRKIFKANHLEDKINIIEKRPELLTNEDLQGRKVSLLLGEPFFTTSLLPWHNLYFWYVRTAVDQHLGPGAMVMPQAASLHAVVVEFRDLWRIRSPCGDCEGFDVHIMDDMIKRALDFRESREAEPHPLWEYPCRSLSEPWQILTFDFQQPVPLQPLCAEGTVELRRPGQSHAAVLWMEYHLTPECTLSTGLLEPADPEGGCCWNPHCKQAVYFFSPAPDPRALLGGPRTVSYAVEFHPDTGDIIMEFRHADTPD

[18] = biological target: Protein arginine N-methyltransferase 8 (Homo sapiens, UniProt Q9NR22); assay: Inhibition of PRMT8 (unknown origin)
Sequence of Protein arginine N-methyltransferase 8 (Q9NR22 whole entry): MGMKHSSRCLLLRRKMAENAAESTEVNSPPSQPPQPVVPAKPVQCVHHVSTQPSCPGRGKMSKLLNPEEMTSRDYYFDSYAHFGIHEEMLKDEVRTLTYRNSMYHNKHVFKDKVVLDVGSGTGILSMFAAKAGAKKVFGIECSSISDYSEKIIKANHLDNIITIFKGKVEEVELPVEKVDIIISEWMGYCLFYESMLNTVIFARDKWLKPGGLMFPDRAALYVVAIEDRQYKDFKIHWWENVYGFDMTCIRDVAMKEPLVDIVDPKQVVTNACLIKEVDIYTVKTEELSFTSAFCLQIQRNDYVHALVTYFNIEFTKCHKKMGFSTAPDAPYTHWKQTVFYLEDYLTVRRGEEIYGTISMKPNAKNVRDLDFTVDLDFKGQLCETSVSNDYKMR

Sequence of PRMT5/MEP50 complex (O14744 whole entry): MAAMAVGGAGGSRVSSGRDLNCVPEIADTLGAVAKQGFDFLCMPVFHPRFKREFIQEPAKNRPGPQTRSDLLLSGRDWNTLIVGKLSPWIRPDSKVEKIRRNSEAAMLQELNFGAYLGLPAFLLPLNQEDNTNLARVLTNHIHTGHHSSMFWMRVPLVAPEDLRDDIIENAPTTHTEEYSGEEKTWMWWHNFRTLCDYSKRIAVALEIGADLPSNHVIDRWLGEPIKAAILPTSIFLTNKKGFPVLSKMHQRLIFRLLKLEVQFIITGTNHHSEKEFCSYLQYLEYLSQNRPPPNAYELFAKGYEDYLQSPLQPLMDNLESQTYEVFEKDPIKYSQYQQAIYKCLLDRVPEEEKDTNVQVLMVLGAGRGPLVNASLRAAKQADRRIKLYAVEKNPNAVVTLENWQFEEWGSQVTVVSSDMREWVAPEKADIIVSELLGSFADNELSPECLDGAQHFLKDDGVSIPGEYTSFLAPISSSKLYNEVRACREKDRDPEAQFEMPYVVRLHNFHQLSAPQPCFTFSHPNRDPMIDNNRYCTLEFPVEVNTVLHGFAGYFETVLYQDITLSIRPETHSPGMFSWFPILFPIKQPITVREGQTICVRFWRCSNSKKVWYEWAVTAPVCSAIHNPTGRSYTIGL
Sequence of PRMT5/MEP50 complex (Q9BQA1 whole entry, further chain): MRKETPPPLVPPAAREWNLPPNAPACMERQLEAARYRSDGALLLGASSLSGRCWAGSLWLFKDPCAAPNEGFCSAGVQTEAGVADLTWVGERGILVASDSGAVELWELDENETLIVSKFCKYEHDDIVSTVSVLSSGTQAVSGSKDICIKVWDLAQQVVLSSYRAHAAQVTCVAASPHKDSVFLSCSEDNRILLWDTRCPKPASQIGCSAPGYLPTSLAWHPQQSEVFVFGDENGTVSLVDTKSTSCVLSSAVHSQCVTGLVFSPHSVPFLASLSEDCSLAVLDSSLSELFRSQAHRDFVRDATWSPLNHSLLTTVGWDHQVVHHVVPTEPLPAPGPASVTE
Sequence of Voltage-gated inwardly rectifying potassium channel KCNH2 (Q12809 whole entry): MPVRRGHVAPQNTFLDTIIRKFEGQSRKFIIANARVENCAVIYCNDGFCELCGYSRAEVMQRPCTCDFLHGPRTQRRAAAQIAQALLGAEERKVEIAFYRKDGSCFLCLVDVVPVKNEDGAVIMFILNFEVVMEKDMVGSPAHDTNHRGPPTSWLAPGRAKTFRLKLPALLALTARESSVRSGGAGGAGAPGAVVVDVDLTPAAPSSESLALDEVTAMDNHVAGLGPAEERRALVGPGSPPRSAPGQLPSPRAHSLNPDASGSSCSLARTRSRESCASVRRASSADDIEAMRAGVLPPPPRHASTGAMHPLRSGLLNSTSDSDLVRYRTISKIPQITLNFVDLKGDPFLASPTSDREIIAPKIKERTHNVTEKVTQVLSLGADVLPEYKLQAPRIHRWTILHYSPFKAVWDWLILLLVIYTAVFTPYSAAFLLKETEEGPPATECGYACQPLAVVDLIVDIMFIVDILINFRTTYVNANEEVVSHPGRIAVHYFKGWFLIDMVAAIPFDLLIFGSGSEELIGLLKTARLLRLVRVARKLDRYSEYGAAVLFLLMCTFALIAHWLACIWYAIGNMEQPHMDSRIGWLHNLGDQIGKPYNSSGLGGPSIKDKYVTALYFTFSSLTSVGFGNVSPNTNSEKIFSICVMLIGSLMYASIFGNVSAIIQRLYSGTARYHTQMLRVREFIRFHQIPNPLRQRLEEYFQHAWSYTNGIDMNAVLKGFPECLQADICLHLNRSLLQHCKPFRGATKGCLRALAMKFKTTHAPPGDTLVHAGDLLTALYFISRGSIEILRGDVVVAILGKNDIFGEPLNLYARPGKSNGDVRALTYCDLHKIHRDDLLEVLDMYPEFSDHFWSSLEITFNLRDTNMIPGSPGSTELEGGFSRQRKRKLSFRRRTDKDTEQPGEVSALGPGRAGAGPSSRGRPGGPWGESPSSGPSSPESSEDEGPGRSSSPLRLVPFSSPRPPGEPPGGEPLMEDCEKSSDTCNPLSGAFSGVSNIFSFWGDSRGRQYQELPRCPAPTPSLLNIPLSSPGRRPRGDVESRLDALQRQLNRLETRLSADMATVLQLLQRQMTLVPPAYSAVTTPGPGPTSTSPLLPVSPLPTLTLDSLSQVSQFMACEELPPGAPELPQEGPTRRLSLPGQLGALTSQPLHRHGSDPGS
Sequence of Protein arginine N-methyltransferase 3 (O60678 whole entry): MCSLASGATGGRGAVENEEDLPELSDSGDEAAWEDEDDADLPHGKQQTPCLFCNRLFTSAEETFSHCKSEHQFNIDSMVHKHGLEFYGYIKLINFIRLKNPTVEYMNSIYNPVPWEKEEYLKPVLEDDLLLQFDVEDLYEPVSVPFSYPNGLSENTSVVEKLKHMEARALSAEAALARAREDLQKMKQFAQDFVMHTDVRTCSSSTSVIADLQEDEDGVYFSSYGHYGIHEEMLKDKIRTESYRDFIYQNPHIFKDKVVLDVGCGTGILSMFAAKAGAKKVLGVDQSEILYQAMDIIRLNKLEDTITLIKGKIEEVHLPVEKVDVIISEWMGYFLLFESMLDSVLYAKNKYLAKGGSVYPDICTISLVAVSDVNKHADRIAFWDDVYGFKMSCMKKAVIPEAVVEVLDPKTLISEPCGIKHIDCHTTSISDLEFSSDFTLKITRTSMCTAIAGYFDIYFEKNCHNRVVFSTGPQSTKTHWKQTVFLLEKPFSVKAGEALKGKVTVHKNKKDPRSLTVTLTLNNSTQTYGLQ
Sequence of Protein arginine N-methyltransferase 6 (Q96LA8 whole entry): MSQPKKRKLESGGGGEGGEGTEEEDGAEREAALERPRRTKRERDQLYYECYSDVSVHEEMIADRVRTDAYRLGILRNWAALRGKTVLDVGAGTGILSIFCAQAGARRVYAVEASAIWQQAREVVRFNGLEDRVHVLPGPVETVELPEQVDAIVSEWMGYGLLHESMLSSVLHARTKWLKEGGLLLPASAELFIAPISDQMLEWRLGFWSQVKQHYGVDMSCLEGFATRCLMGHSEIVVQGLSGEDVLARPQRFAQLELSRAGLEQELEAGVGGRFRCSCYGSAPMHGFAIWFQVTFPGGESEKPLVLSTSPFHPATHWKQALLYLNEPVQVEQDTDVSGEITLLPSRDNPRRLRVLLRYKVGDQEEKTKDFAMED

O=C(Nc1ccc2c(c1)C(=O)N(C[C@H](O)CN1CCc3ccccc3C1)CC21CC1)c1ccccc1
pIC50 (PRMT5/MEP50 complex): 7.97
pIC50 (Z-138): 6.40

CC(=O)N1CCC(Nc2cc3c(cn2)C2(CC2)CN(C[C@H](O)CN2CCc4ccccc4C2)C3=O)CC1
pIC50 (Z-138): 8.51
half-life [1]: 24 min
Tmax ([2]; Sprague-Dawley, read-out: Tmax): 24 min
Cmax ([3]; Sprague-Dawley, read-out: Cmax): 145 ng/mL
AUC(0-t) [4]: 356 ng·h/mL
MRT last [5]: 12 min
bioavailability [6]: 16.4%
half-life [7]: 24 min
Cmax [8]: 678 ng/mL
AUC(0-t) [9]: 435 ng·h/mL
MRT last [10]: 54 min
clearance [11]: 38.3 mL/min/kg
Vd [12]: 3 L/kg

CC(=O)N1CCC(Nc2ccc3c(n2)C(=O)N(C[C@H](O)CN2CCc4ccccc4C2)CC32CC2)CC1
pIC50 (PRMT5/MEP50 complex): 7.06
pIC50 (Z-138): 6.55

CC(=O)N1CCC(Nc2ccc3c(c2)C(=O)N(C[C@H](O)CN2CCc4ccccc4C2)CC32CCC2)CC1
pIC50 (PRMT5/MEP50 complex): 7.58
pIC50 (Z-138): 8.41
half-life [1]: 210 min
Tmax ([2]; Sprague-Dawley, read-out: Tmax): 18 min
Cmax ([3]; Sprague-Dawley, read-out: Cmax): 840 ng/mL
AUC(0-t) [4]: 1600 ng·h/mL
MRT last [5]: 132 min
bioavailability [6]: 23.4%
half-life [7]: 48 min
Cmax [8]: 1770 ng/mL
AUC(0-t) [9]: 1370 ng·h/mL
MRT last [10]: 48 min
clearance [11]: 25 mL/min/kg
Vd [12]: 1.6 L/kg
pIC50 [13]: 6.34

C[S+](CC[C@H](N)C(=O)[O-])C[C@H]1O[C@@H](n2cnc3c(N)ncnc32)[C@H](O)[C@@H]1O (some centres undefined) [ADEMETIONINE]
pIC50 (PRMT5/MEP50 complex): 6.10
pIC50 [14]: 5.29
pIC50 [15]: 7.38
pIC50 [16]: 5.90
pIC50 [17]: 6.31
pIC50 [18]: 6.12

CC(=O)N1CCC(C(=O)Nc2ccc3c(c2)C(=O)N(C[C@H](O)CN2CCc4ccccc4C2)CC32CC2)CC1
pIC50 (PRMT5/MEP50 complex): 8.06
pIC50 (Z-138): 6.99

CC(=O)N1CCC(C(=O)Nc2ccc3c(c2)C(=O)N(C[C@H](O)CN2CCc4ccccc4C2)CC32CCC2)CC1
pIC50 (PRMT5/MEP50 complex): 8.40
pIC50 (Z-138): 7.04

O=C1c2cc(NC3CCNCC3)ccc2C2(CC2)CN1C[C@H](O)CN1CCc2ccccc2C1
pIC50 (PRMT5/MEP50 complex): 8.05
pIC50 (Z-138): 6.23

O=C1c2cc(NC3CCN(C(=O)C4CC4)CC3)ccc2C2(CCCC2)CN1C[C@H](O)CN1CCc2ccccc2C1
pIC50 (PRMT5/MEP50 complex): 7.34
pIC50 (Z-138): 7.69

CC(=O)N1CCC(C(=O)N2CCC3(CC2)CCN(C[C@H](O)CN2CCc4ccccc4C2)C3=O)CC1
pIC50 (PRMT5/MEP50 complex): < 5.00

Cn1cc(C(=O)Nc2ccc3c(c2)C(=O)N(C[C@H](O)CN2CCc4ccccc4C2)CC32CCC2)cn1
pIC50 (PRMT5/MEP50 complex): 7.79
pIC50 (Z-138): 6.50

O=C1c2cc(NS(=O)(=O)c3ccccc3)ccc2C2(CC2)CN1C[C@H](O)CN1CCc2ccccc2C1
pIC50 (PRMT5/MEP50 complex): 6.60

CC(=O)N1CCC(Nc2ccc3c(c2)C(=O)N(C[C@H](O)CN2CCc4ccccc4C2)CC32CCCC2)CC1
pIC50 (PRMT5/MEP50 complex): 7.65
pIC50 (Z-138): 7.99
t1/2 ([1]; po, 10 mg/kg): 18 min
Tmax ([2]; po, 10 mg/kg): 6 min
Cmax ([3]; po, 10 mg/kg): 149.5 ng/mL
AUCt ([4]; po, 10 mg/kg): 794.2 ng·h/mL
MRT last [5]: 6 min
bioavailability [6]: 24.2%
half-life [7]: 78 min
Cmax [8]: 943 ng/mL
AUC(0-t) [9]: 656 ng·h/mL
MRT last [10]: 60 min
clearance [11]: 25 mL/min/kg
Vd [12]: 2.8 L/kg
pIC50 [13]: 6.46

CC(=O)N1CCC(Nc2ccc3c(c2)CC(=O)N3C[C@H](O)CN2CCc3ccccc3C2)CC1
pIC50 (PRMT5/MEP50 complex): < 5.00

CC(=O)N1CCC(Nc2ccc3c(c2)C(=O)N(C[C@H](O)CN2CCc4ccccc4C2)CC32CCOC2)CC1 (some centres undefined)
pIC50 (PRMT5/MEP50 complex): 6.94

CC(=O)N1CCC(Nc2ccc3c(c2)N(C[C@H](O)CN2CCc4ccccc4C2)C(=O)C3)CC1
pIC50 (PRMT5/MEP50 complex): < 5.00

Cn1cc(C(=O)Nc2ccc3c(c2)C(=O)N(C[C@H](O)CN2CCc4ccccc4C2)CC32CC2)cn1
pIC50 (PRMT5/MEP50 complex): 8.00
pIC50 (Z-138): 6.54

O=C(Nc1ccc2c(c1)C(=O)N(C[C@H](O)CN1CCc3ccccc3C1)CC21CC1)C1CCOCC1
pIC50 (PRMT5/MEP50 complex): 7.78
pIC50 (Z-138): 6.55

CC(=O)N1CCC(Nc2ccc3c(c2)C(=O)N(C[C@H](O)CN2CCc4ccccc4C2)CC32CC2)CC1
pIC50 (PRMT5/MEP50 complex): 7.74
pIC50 (Z-138): 8.36
half-life [1]: 54 min
Tmax ([2]; Sprague-Dawley, read-out: Tmax): 18 min
Cmax ([3]; Sprague-Dawley, read-out: Cmax): 1150 ng/mL
AUC(0-t) [4]: 1460 ng·h/mL
MRT last [5]: 60 min
bioavailability [6]: 63.1%
half-life [7]: 24 min
Cmax [8]: 1560 ng/mL
AUC(0-t) [9]: 464 ng·h/mL
MRT last [10]: 18 min
clearance [11]: 71.7 mL/min/kg
Vd [12]: 2.6 L/kg

CC(=O)N1CCC(C(=O)N2CCC3(CC2)C(=O)N(C[C@H](O)CN2CCc4ccccc4C2)c2ccccc23)CC1
pIC50 (PRMT5/MEP50 complex): 5.51

CC(=O)N1CCC(Nc2ccc3c(c2)C(=O)N(C[C@H](O)CN2CCc4ccccc4C2)CC3)CC1
pIC50 (PRMT5/MEP50 complex): 7.43
pIC50 (Z-138): 7.85

— ChEMBL document CHEMBL6087464, “Design, Synthesis, and Biological Evaluation of 3,4-Dihydroisoquinolin-1(2H)-one Derivatives as Protein Arginine Methyltransferase 5 Inhibitors for the Treatment of Non-Hodgkin's Lymphoma” (J Med Chem, 2025)
